Values of other authors in US12311060B2 (priority 2017, dated 2025).

Conditions: rodent models

C/C=C1\C2C=C(C)C[C@]1(N)c1ccc(=O)[nH]c1C2 (stereo in doubt) [huperzine A, (1R,9S,13E)-1-amino-13-ethylidene-11-methyl-6-azatricyclo[7.3.1.02,7]trideca-2(7),3,10-trien-5-one]
efficacy as an anticonvulsant in words: very high efficacy
